# Experiments:
# TLR7 = molecular target: T1, TLR7 (Homo sapiens, UniProt Q9NYK1); settings: cited from earlier work
# T1 sequence (Q9NYK1 27-1049): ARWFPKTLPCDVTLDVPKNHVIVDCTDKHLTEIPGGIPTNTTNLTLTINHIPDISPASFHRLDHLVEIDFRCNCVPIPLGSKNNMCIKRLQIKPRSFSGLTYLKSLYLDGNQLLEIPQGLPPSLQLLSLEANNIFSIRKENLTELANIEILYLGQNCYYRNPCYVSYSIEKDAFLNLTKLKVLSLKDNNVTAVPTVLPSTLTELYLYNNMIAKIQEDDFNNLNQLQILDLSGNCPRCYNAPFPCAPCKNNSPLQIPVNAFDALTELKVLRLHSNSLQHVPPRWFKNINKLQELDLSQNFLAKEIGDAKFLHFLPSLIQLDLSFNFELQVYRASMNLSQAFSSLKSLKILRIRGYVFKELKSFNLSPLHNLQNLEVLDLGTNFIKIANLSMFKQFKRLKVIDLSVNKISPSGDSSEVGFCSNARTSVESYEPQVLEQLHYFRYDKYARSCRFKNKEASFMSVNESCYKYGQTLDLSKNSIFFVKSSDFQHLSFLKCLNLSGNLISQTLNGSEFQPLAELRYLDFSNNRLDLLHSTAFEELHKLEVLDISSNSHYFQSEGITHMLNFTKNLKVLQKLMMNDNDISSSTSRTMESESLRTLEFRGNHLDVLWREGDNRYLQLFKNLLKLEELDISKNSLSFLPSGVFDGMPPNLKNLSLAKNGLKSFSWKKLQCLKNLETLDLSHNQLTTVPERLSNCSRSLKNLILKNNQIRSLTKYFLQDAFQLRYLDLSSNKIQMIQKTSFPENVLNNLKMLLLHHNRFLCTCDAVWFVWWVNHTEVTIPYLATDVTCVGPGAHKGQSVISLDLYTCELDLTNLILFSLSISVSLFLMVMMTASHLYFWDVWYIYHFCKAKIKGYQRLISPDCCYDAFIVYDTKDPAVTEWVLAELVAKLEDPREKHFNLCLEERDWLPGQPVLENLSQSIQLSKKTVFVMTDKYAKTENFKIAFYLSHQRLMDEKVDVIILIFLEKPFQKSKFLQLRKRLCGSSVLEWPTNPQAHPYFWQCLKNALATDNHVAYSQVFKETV
# viral rhinitis [1] = test system: viral rhinitis
# Source text: In each of the tests, an imiquimod salve was used. The formulation was that commonly used to treat warts and sold under the brand name Aldara™. The salve was applied to each naris of the test subject by use of a common cotton swab. Either a 4 mm^3 dab of salve or ½ pack of 5% Aldara™ was placed on the swab head. The swab head was inserted into a naris. The swab was moved around inside the naris to distribute the salve over the mucosal membrane of the naris. Immediately, after application of the Aldara™ to the subject's first naris, a swab was used to apply the Aldara™ to the subject's second naris. Immediately after application to each naris, the salve was massaged into the mucosal membrane of each naris.
# A test sample of six patients was treated for viral rhinitis using imiquimod (5% topical cream Aldara™, manufactured by 3M Corporation, St. Paul, Minn.). The patients were diagnosed with viral rhinitis due to initial symptoms such as congested nasal passages (rhinitis), nasal drip or rhinorrhea, and sneezing. Contents from ½ packet of a standard imiquimod formulation such as, for example, Aldara™ were applied with a cotton swab into both nares by massaging gently but thoroughly. Approximately the contents from ½ packet of 5% Aldara™ was applied thoroughly along the inside surface of both nares. Initial application of Aldara™ to all the six patients occurred within 24 hours after the appearance of first symptoms resembling viral rhinitis, in order to maximize the efficiency of imiquimod in stimulating the immune system when the viral load is presumably smaller. The procedure was repeated every 12 hours for up to 48 hours. The imiquimod packets were refrigerated after opening, and the remaining contents were used for subsequent applications.
# The patients were monitored for changes in the viral rhinitis symptoms.
# viral rhinitis [2] = assay: Viral rhinitis test subjects, delayed or once-daily Aldara in each nostril (Example 2); assay type: in vivo, human; settings: applied more than 2 days after the onset of the cold symptoms
# Experimental: The swab head was inserted into a naris.
# Infected Test Subject #1 developed a sore throat with tingling in larynx, pharynx and uvula. 12 hours later, Subject 1 also developed congestion of the nose. One day later, the subject's initial symptoms intensified, and the subject further developed systemic symptoms such as malaise and headache. More than twenty four hours after the initial viral rhinitis symptoms appeared, Aldara™ was applied in each nostril with a Q-tip swab.
# A 4 mm^3 dab of salve was placed on the swab head. The swab head was inserted into a naris. […] The subject was also treated with 2 teaspoons of standard cough suppressant guaifenesin/dextromethorphan (Wal-Tussin). The next day, malaise and headache were more pronounced and Aldara™ was reapplied with Q-tip to each nostril as described above. Also, 2 teaspoons of guaifenesin/dextromethorphan was administered.
# Infected Test Subject #2 developed common cold with rhinorrhea and nose congestion. Aldara™ was applied once to each nostril every day for 3 days.
# [3] = test system: purified plasmacytoid dendritic cells; settings: cited from earlier work
# IFN-a = IFN-a ELISA of nasal secretions after nasal application of imiquimod in macaques; assay type: in vivo, Macaca mulatta
# Source text: (§1) The assay was limited to examining nasal secretions following nasal application (both nares) of imiquimod, because it is believed that this is the entry site where an immune response will be first observed. The assay evaluated the appearance of […] IFN-α and TNF-a in Macaca mulatta macaques and compared it with a control group treated with a base cream (without imiquimod) or simply anesthetized for the same time interval as the treated group.
# (§2) The significance of the data is two-fold. First, intranasal administration of imiquimod cream (5%) produced enough IFN-a in a short period of time, so the cream can be applied daily in order to have 5-6 h of good efficacy. Thus, for example, one can begin applying the cream prior to encountering a known viral area such as an airplane. However, the cream has known cytotoxic effects (mediated through the cytokine production), especially if applied for weeks, so extended application would not be recommended. In the assay, TNF-a remained high for at least 6 h. In the treated group of macaques, the cream was washed away with warm water after the experiments. […] The cream needs to be applied to induce maximum concentration of IFN-a, but it may be removed when TNF-a continues to be elevated (after 6 h).
# (§3) The control group (n=3) and the treated group (n=5) were sedated with glycopyrolate 0.01 mg/kg+acetaminophen 0.2 mg/kg and anesthetized with zolazepam (Telazol) 10 mg/kg intramuscular. […] Physical examination after each sample and at 6 h, 12 h, and 24 h post anesthesia consisted of examining each macaque for fever, erythema, erosion, flaking, and lacrimation.
# (§4) IFN-a and TNF-a enzyme-linked immunoabsorbent assays (ELISA). Levels of IFN-a and TNF-a were measured using commercially available multispecies kit (PBL Biomedical Laboratories) (product #41105-1). The range of detection was 10-500 pg/ml (high sensitivity protocol).
# TNF-a = TNF-a ELISA of nasal secretions after nasal application of imiquimod in macaques; assay type: in vivo, Macaca mulatta
# Source text: as §1, §2, §3, §4
# HSV-2 [4] = settings: 235 human patients; topical application to herpes lesions; cited from earlier work
# [5] = Physical examination of macaques for adverse or cytotoxic effects after nasal Aldara
# HSV-2 [6] = assay: Remission interval between genital herpes outbreaks after intranasal Aldara regimens (Example 3); assay type: in vivo, human; settings: after 2 to 4 regimens
# Experimental: The patients were diagnosed with HSV-2 due to typical outbreak symptoms such as lesions. […] Thus, the contents were applied thoroughly along the inside surface of both nares. Initial application of Aldara™ to all the four patients occurred within 12 hours after the appearance of first symptoms resembling an outbreak of genital herpes. The application procedure was repeated every 12 hours up to 48 hours so that a total of four applications was administered to each patient.
# Prior to treatment with Aldara™, the four patients were having herpes outbreaks at fairly regular intervals. Patients 1, 2 and 3 were experiencing outbreaks every 2 to 3 months and Patient 4 was having outbreaks once a month. Each of the four patients then began treatment by undergoing the 48 hour Aldara™ regimen detailed above each time he or she experienced an outbreak. After undergoing 2 to 4 regimens, each patient experienced a prolonged period of remission before the next outbreak.
# IFN-a mRNA = IFN-a mRNA in postnasal swabs by quantitative competitive RT-PCR in macaques
# [7] = nasal secretions, p<0.0001 versus control group
smiles,measurement,setting,value
CC(C)Cn1cnc2c(N)nc3ccccc3c21 [imiquimod],Activity at TLR7,TLR7,TLR7 agonists
same,Effect of accidental inhalation of imiquimod,viral rhinitis [1]; one patient inhaled imiquimod,severe flu-like symptoms that spontaneously subsided within 24 hours
same,Aggravation of ulcerative colitis during treatment,viral rhinitis [1]; one patient with ulcerative colitis,did not suffer any further aggravation
same,"Complete disappearance of symptoms (nasal congestion, sore throat, headache; malaise), time of treatment","viral rhinitis [1]; six patients, untreated viral rhinitis about a week or 10 days",≤ 48 h
same,Side effects reported by patients,viral rhinitis [1]; throughout the course of treatment,No untoward side effects
same,Effectiveness of the treatment with late application,viral rhinitis [2],decreased markedly
same,IFN-a induction,[3],induce IFN-a
same,IFN-a level relative to basal level,IFN-a; 3 h post treatment,5 times basal level
same,IFN-a level,IFN-a; 4 h post treatment,near maximal level
same,IFN-a level,IFN-a; 6 h post treatment,near basal level
same,"IFN-a increase over time (ELISA, FIG. 6A)",IFN-a; [7],630 ng/mg protein
same,Time of rapid induction of IFN-a post treatment,IFN-a; single nasal application,1 to 5 h
same,TNF-a level relative to the controls,TNF-a; 6 h post nasal treatment,3 times
same,TNF-a level,TNF-a; 6 h post treatment,remaining high
same,"TNF-a increase over time (ELISA, FIG. 6B)",TNF-a; [7],540 ng/mg protein
same,Time of TNF-a peak,TNF-a; post treatment,4 h
same,"Outbreak recurrence times, imiquimod versus placebo",HSV-2 [4],no statistically significant difference
same,Adverse reactions to treatment in macaques,[5]; cream used during short period of time,No adverse reactions
same,Cytotoxic effects on examination,"[5]; examined at 6 h, 12 h, or 24 h, cream washed away after the experiments","No animal had cytotoxic effects when examined at 6 h, 12 h, or 24 h, except one animal, which had an episode of lacrimation for 12 h post treatment"
same,Post-Treatment Remission Interval (Approximate),"HSV-2 [6]; Patient 1, pre-treatment interval 2-3 months",~3.5 years
same,Post-Treatment Remission Interval (Approximate),"HSV-2 [6]; Patient 2, pre-treatment interval 2-3 months",~6 months
same,Post-Treatment Remission Interval (Approximate),"HSV-2 [6]; Patient 3, pre-treatment interval 2-3 months",~10 months
same,Post-Treatment Remission Interval (Approximate),"HSV-2 [6]; Patient 4, pre-treatment interval 1 month",~2 months
same,"IFN-a level in treated animals, mean","IFN-a mRNA; samples taken 3-5 h after application, p=0.004 versus controls",2.3 IFN-a/albumin mRNA×10^3
same,"IFN-a level in treated animals, range","IFN-a mRNA; samples taken 3-5 h after application, related to albumin mRNA",0.84-5.20 mRNA×10^3
same,Increase of IFN-a messenger RNA levels in nasal secretions compared with untreated macaques,IFN-a mRNA; single nasal application,2-5 fold

# From patent US7893083B2, “Method of treating genital herpes” (priority 2003, dated 2011)
